From article PMC2994747, “Molecular Characterization of c-Abl/c-Src Kinase Inhibitors Targeted against Murine Tumour Progenitor Cells that Express Stem Cell Markers” (PLoS ONE, 2010)
Where a name gives a salt, the structure may show the parent alone. Read-outs that look alike come from different tables or passages of the source.

Experiments:
[1] = system: leukaemia cells; conditions: cited from earlier work
[2] = system: A2C12; test: Cell cycle analysis by flow cytometry; format: cell-based, mouse; conditions: IC50 concentration, 96 h
Procedure: (§1) CycleTEST™ PLUS DNA Reagent Kit (Becton Dickinson GmbH, Heidelberg, Germany) for cell cycle analysis was used, according to the instructions of the manufacturer. Briefly, the cells were harvested with trypsin, washed with PBS, and resuspended in CycleTEST Buffer. The cells were centrifuged and resuspended in solution A. After incubation for 10 min at room temperature, solution B was added and incubated. After adding solution C, the samples were incubated at 4°C protected from light. The samples were stored on ice and protected from light until analysis by FACScan flow cytometer (Becton Dickinson GmbH, Heidelberg, Germany).

[3] = system: GammaA3; test: Cell cycle analysis by flow cytometry; format: cell-based, mouse; conditions: IC50 concentration, 96 h
Procedure: as §1

[4] = system: GammaD12; test: Cell cycle analysis by flow cytometry; format: cell-based, mouse; conditions: IC50 concentration, 96 h
Procedure: as §1

[5] = system: CaCo2; test: MTS cell viability assay; format: cell-based, human
Procedure: (§2) Three human and eleven murine cancer cell lines were used. The human NSCLC cell line A549 (ACC 107) and the human colorectal carcinoma cell line CaCo2 (ACC 169) were obtained from Deutsche Sammlung von Mikroorganismen und Zellkulturen (DSMZ, Braunschweig, Germany). The human hepatocellular carcinoma cell line HepG2 (HB-8065) was obtained from American Type Culture Collection (Manassas, VA, USA). The 11 murine NSCLC cell lines were established as described recently. Cells were grown in monolayer cultures in DMEM containing 10% foetal calf serum, 4 mmol/l L-glutamine and 2% Penicillin/Streptomycin at 37°C in a humidified atmosphere of 95% air and 5% CO2.
(§3) Cell culture viability was monitored by CellTiter96® AQueous One Solution Cell Proliferation Assay (Promega GmbH, Mannheim, Germany). The cells were seeded in triplicates in 96-well microtitre plates and treated with the dual kinase inhibitors or vehicle (0.2% DMSO). After 24 h or 96 h of treatment the MTS tetrazolium reagent was added to the cells and incubated for 1 h. Absorbance at 490 nm was assayed with a Victor3 Wallac 1420 Multilabel counter (PerkinElmer, Waltham, MA, USA).

[6] = system: HepG2; test: MTS cell viability assay; format: cell-based, human
Procedure: as §2, §3

[7] = system: A549; test: MTS cell viability assay; format: cell-based, human
Procedure: as §2, §3

[8] = system: A2C12; test: MTS cell viability assay; format: cell-based, mouse
Procedure: as §2, §3

[9] = system: BetaD5; test: MTS cell viability assay; format: cell-based, mouse
Procedure: as §2, §3

[10] = system: GammaA3; test: MTS cell viability assay; format: cell-based, mouse
Procedure: as §2, §3

[11] = system: GammaD12; test: MTS cell viability assay; format: cell-based, mouse; conditions: MTS
Procedure: as §2, §3

[12] = system: CaCo2; test: Cell cycle analysis by flow cytometry; format: cell-based, human; conditions: IC50 concentration, 96 h
Procedure: as §1

[13] = system: A549; test: Cell cycle analysis by flow cytometry; format: cell-based, human; conditions: IC50 concentration, 96 h
Procedure: as §1

[14] = biological target: T1, c-Abl (Homo sapiens, UniProt P00519); test: Abl filter-binding kinase assay (Abtide, [γ-32P]ATP); format: biochemical; conditions: isolated Abl; calculated from ID50, ATP-competitive; E0 0.005, S0 0.012 µM
T1 construct: His tag; purchased Upstate (Lake Placid, NY, USA)
Procedure: (§4) Baculovirus-produced recombinant purified his-tagged active against human Src and Abl were purchased from Upstate (Lake Placid, NY, USA).
(§5) Src activity was measured in a filter-binding assay using the Src Assay Kit (Upstate, Lake Placid, NY, USA), according to the manufacturer's protocol, using the specific Src peptide substrate [[…]] in the presence of 0.125 pmol of Src and 0.160 pmol of [γ-^32P]ATP. Abl activity was measured in a filter-binding assay using an Abl specific peptide substrate (Abtide, Upstate). Reaction conditions were (in a final volume of 10 µl): 25 mM Tris-HCl pH 7.5, 1 mM DTT, 0.012 µM [γ-^32P]ATP, 0.022 µM c-Abl. Reactions were incubated 10 min at 30°C.The samples (9 µl) were spotted on paper cellulose filters which were washed according to the manufacturer's protocol. Filter-bound radioactivity was measured by liquid scintillation with a Microbeta-Trilux apparatus (PerkinElmer, Waltham, MA, USA).
(§6) The ID50 were converted to Ki according to a competitive mechanism with respect to the substrate ATP. […] Since (i) the ATP concentration was limiting, i.e., [ATP], Km(ATP), and (ii) the enzyme concentration was not negligible with respect to the ATP concentration, the classical Cheng-Prusoff relationship was not applicable. Consequently, Ki values were calculated according to [drawing 3] (2) where S0 is the concentration of the competing substrate (ATP) and E0 is the concentration of the enzyme. Each experiment was done in triplicate and mean values were used for the interpolation. Curve fitting was performed with the program GraphPad Prism.

[15] = system: BetaD5; test: Cell cycle analysis by flow cytometry; format: cell-based, mouse; conditions: IC50 concentration, 96 h
Procedure: as §1

[16] = system: HepG2; test: Cell cycle analysis by flow cytometry; format: cell-based, human; conditions: IC50 concentration, 96 h
Procedure: as §1

[17] = biological target: T2, c-Src (Homo sapiens, UniProt P12931); test: Src filter-binding kinase assay (Src Assay Kit); format: biochemical; conditions: isolated Src; calculated from ID50, ATP-competitive; E0 0.005, S0 0.012 µM
T2 construct: His tag; purchased Upstate (Lake Placid, NY, USA)
Procedure: as §4, §5, §6

[18] = 24 h, read-out: Calculated IC50 after single treatment for 24 h
[19] = 96 h, read-out: Calculated IC50 after daily treatment for 96 h
[20] = Homo sapiens, Caco-2, 24 h, read-out: Calculated IC50 after single treatment for 24 h
[21] = Homo sapiens, Caco-2, 96 h, read-out: Calculated IC50 after daily treatment for 96 h
[22] = Homo sapiens, 24 h, read-out: Calculated IC50 after single treatment for 24 h
[23] = Homo sapiens, 96 h, read-out: Calculated IC50 after daily treatment for 96 h
[24] = Homo sapiens, A549, 24 h, 24 h, read-out: Calculated IC50 after single treatment for 24 h
[25] = Homo sapiens, A549, 96 h, 96 h, read-out: Calculated IC50 after daily treatment for 96 h
[26] = Mus musculus, 24 h, read-out: Calculated IC50 after single treatment for 24 h
[27] = Mus musculus, 96 h, read-out: Calculated IC50 after daily treatment for 96 h

T2 sequence (P12931 whole entry): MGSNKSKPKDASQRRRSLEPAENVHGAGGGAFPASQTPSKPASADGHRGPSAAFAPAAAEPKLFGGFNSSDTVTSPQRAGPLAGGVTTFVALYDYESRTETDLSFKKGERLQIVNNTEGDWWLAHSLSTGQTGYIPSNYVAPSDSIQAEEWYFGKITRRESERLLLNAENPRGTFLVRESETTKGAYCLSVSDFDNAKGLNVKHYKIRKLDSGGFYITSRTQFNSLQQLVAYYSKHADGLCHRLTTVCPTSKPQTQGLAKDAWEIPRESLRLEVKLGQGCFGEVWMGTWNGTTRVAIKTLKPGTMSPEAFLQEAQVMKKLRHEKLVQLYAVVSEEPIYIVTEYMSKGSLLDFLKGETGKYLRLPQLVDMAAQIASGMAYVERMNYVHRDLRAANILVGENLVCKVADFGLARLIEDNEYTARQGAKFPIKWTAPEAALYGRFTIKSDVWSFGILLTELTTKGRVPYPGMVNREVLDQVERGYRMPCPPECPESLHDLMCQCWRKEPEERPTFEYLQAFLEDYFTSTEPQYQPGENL
T1 sequence (P00519 whole entry): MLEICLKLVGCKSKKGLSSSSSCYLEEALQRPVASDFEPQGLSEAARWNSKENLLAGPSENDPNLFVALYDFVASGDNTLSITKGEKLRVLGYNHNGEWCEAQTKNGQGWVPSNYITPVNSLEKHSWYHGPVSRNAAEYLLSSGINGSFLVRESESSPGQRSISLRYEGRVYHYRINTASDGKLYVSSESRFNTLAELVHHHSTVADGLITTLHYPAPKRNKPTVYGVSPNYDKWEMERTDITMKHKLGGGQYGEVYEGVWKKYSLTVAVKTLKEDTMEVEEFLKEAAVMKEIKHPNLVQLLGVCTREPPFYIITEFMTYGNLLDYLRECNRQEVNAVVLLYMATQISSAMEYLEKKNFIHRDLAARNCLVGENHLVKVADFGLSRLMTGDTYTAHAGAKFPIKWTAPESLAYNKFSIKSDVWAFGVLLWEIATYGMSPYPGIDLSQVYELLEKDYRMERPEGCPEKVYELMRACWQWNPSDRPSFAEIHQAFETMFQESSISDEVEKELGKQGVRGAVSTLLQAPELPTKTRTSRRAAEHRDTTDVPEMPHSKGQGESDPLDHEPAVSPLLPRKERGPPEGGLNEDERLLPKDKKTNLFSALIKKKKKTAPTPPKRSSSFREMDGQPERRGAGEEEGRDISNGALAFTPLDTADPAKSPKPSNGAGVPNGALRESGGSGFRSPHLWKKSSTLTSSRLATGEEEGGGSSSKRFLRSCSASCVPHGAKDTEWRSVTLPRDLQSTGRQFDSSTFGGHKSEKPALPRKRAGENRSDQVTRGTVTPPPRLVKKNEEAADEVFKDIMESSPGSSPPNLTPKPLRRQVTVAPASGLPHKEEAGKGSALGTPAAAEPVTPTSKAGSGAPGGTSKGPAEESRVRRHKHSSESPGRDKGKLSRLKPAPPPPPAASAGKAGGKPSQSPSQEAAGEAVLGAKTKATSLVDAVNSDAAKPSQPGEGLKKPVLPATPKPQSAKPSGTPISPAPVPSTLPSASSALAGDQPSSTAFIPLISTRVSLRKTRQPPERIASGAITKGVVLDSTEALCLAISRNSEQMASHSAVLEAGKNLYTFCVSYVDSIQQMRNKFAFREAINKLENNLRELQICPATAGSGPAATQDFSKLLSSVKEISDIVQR

Ki [14] | IC50 [5, 20] | Structure (SMILES) | Cells in G1 phase [2] | Cells in G2 phase [2] | Cells in S phase [2] | Cells in G1 phase [3] | Cells in G2 phase [3] | Cells in S phase [3] | Cells in G1 phase [4] | Cells in G2 phase [4] | Cells in S phase [4] | Cells in G1 phase [12] | Cells in G2 phase [12] | Cells in S phase [12] | Cells in G1 phase [13] | Cells in G2 phase [13] | Cells in S phase [13] | Cells in G1 phase [15] | Cells in G2 phase [15] | Cells in S phase [15] | other results
0.151 µM | 37.7 ± 2.4 µM | Cc1nc(Nc2cccc(F)c2)c2cnn(CC(Cl)c3ccccc3)c2n1 (stereo not shown) [Si166] | 56.1% | 13.6% | 30.4% | 74.4% | 14.1% | 11.5% | 39.5% | 10.2% | 50.3% | 56.7% | 17.8% | 25.5% | 63.2% | 6.6% | 30.2% | 68.3% | 20.8% | 10.9% | IC50 [5, 21]: 6 ± 0.7 µM; IC50 [6, 22]: 37.7 ± 2.4 µM; IC50 [6, 23]: 10.8 ± 0.9 µM; IC50 [7, 24]: 20.2 ± 2.5 µM; IC50 [7, 25]: 8.3 ± 0.3 µM; IC50 [8, 26]: 16.6 ± 1.2 µM; IC50 [8, 27]: 11.5 ± 0.5 µM; IC50 [9, 26]: 14 ± 2.1 µM; IC50 [9, 27]: 10.6 ± 0.7 µM; IC50 [10, 26]: 17 ± 2.3 µM; IC50 [10, 27]: 19 ± 1.3 µM; IC50 [11, 26]: 18.1 ± 1.4 µM; IC50 [11, 27]: 15.9 ± 1.4 µM; Cells in G1 phase [16]: 54.6%; Cells in G2 phase [16]: 9.6%; Cells in S phase [16]: 35.8%; Ki [17]: 0.338 µM
0.5 µM | 32.2 ± 1.7 µM | Cc1nc(Nc2cccc(Cl)c2)c2cnn(CC(Cl)c3ccccc3)c2n1 (stereo not shown) [Si167] | 55.7% | 13.1% | 31.2% | 73.2% | 15.1% | 11.7% | 42% | 9.4% | 48.6% | 52.7% | 18% | 29.3% | 61.5% | 6.7% | 31.8% | 74.7% | 18.7% | 6.6% | IC50 [5, 21]: 5.7 ± 0.6 µM; IC50 [6, 22]: 32.2 ± 1.7 µM; IC50 [6, 23]: 11.4 ± 1.7 µM; IC50 [7, 24]: 19.8 ± 2.8 µM; IC50 [7, 25]: 5.7 ± 0.3 µM; IC50 [8, 26]: 16.4 ± 0.8 µM; IC50 [8, 27]: 10.6 ± 0.9 µM; IC50 [9, 26]: 12.4 ± 1 µM; IC50 [9, 27]: 9.3 ± 0.6 µM; IC50 [10, 26]: 20.5 ± 1.2 µM; IC50 [10, 27]: 16.8 ± 3.2 µM; IC50 [11, 26]: 19.5 ± 0.8 µM; IC50 [11, 27]: 9 ± 0.9 µM; Cells in G1 phase [16]: 57.8%; Cells in G2 phase [16]: 10.6%; Cells in S phase [16]: 31.6%; Ki [17]: 0.362 µM

Continued, molecule first:

Structure (SMILES) | Ki [14] | IC50 [5, 20] | Cells in G1 phase [2] | Cells in G2 phase [2] | Cells in S phase [2] | Cells in G1 phase [3] | Cells in G2 phase [3] | Cells in S phase [3] | Cells in G1 phase [4] | Cells in G2 phase [4] | Cells in S phase [4] | Cells in G1 phase [12] | Cells in G2 phase [12] | Cells in S phase [12] | Cells in G1 phase [13] | Cells in G2 phase [13] | Cells in S phase [13] | Cells in G1 phase [15] | Cells in G2 phase [15] | Cells in S phase [15] | other results
Cc1ccc(NC(=O)c2ccc(CN3CCN(C)CC3)cc2)cc1Nc1nccc(-c2cccnc2)n1 [Imatinib, Imatinib mesylate] |  |  |  |  |  |  |  |  |  |  |  |  |  |  |  |  |  |  |  |  | Antiproliferative effect for leukaemia cells [1]: submicromolar range
CSc1nc(NCCc2ccccc2)c2cnn(C=Cc3ccccc3)c2n1 [Si40] | 0.45 µM |  | 75.7% | 9.8% | 14.6% | 53.4% | 15.4% | 31.3% | 28.4% | 2.7% | 68.9% | 52.5% | 10.3% | 37.2% | 81% | 3.8% | 15.2% |  |  |  | IC50 [5, 18]: > 100 µM; IC50 [5, 19]: 0.4 ± 0.1 µM; IC50 [6, 18]: > 100 µM; IC50 [7, 18]: > 100 µM; IC50 [7, 19]: 16.2 ± 2.1 µM; IC50 [8, 18]: > 100 µM; IC50 [8, 19]: 7 ± 0.5 µM; IC50 [9, 18]: 43.6 ± 3.6 µM; IC50 [9, 19]: 12.9 ± 2.9 µM; IC50 [10, 18]: > 100 µM; IC50 [10, 19]: > 20 µM; IC50 [11, 18]: 26 ± 3 µM; IC50 [11, 19]: 12.7 ± 0.4 µM
CC(C)Sc1nc(NCCc2ccccc2)c2cnn(CC(Cl)c3ccccc3)c2n1 (stereo not shown) [Si142] | 0.12 µM | 89.2 ± 4.6 µM | 71.3% | 13.4% | 15.3% | 67% | 15.5% | 17.5% | 33.7% | 6.6% | 59.7% | 55.6% | 11.5% | 32.9% | 75.4% | 2.2% | 25.7% | 53.6% | 25.8% | 20.6% | IC50 [5, 21]: 6.8 ± 0.9 µM; IC50 [6, 22]: 89.2 ± 4.6 µM; IC50 [6, 23]: 16.9 ± 2.6 µM; IC50 [7, 24]: > 100 µM; IC50 [7, 25]: 8.1 ± 0.7 µM; melting point: 125 to 126 °C; IC50 [8, 26]: 40.4 ± 2.1 µM; IC50 [8, 27]: 5.3 ± 0.2 µM; IC50 [9, 26]: 11 ± 0.7 µM; IC50 [9, 27]: 8.7 ± 0.7 µM; IC50 [10, 26]: 18.7 ± 4 µM; IC50 [10, 27]: 7.1 ± 0.5 µM; IC50 [11, 26]: 11.8 ± 1.6 µM; IC50 [11, 27]: 7.7 ± 0.5 µM; Cells in G1 phase [16]: 53.5%; Cells in G2 phase [16]: 7.9%; Cells in S phase [16]: 38.6%; Ki [17]: 2 µM
